Data published in paper PMC9951879, “Synthesis of New Shogaol Analogues as NRF2 Activators and Evaluation of Their Anti-Inflammatory Activity, Modes of Action and Metabolic Stability” (Antioxidants, 2023).
Read-outs that look alike come from different tables or passages of the source.

Columns and labels:
KEAP1-NRF2 interaction = biological target: T1, KEAP1-NRF2 interaction (Homo sapiens, UniProt Q14145); test: KEAP1-Nrf2 inhibitor screening, fluorescence polarisation assay; type: binding; conditions: KEAP1 Kelch domain, read-out: IC50, NRF2-KEAP1 inhibition
T1 construct: purchased BPS Bioscience
Experimental: The KEAP1-Nrf2 inhibitor screening assay kit (BPS Bioscience, San Diego, California, USA) was used to determine the effect of STCs in inhibiting KEAP1-NRF2 interaction following the manufacturer’s protocol and our reported method. The STC solutions were diluted with the assay buffer, and 5 μL of the STC solutions were incubated at room temperature for 30 min in the peptide mixture containing 0.5 μL NRF2 peptide (1 μM) and 20 μL KEAP1 (15 ng/μL). The fluorescence polarisation (FP) was measured using a microplate reader at λex 485 nm and λem 530 nm. The following equation was used to determine the per cent KEAP1-NRF2 inhibitory effect of the STCs. Keap1−Nrf2 inhbitory activity %=1−Relative FP of STC/Relative FP of postive control×100

IL-1β = IL-1β ELISA in LPSEc-stimulated BV-2 cells; type: cell-based, mouse; conditions: LPSEc 200 ng/mL; for IL-1β level: 1 μM; for inhibition at 1 µM: Mus musculus, BV-2, 1 μM, read-out: percentage of IL-1β inhibition
Experimental: (§1) The anti-inflammatory activity of the STCs was determined in E. coli lipopolysaccharide (LPSEc; Sigma Aldrich, USA)-induced inflammation in NRF2-proficient and NRF2 siRNA-transfected mouse microglial (BV-2) cells. The NRF2 was silenced in BV-2 cells using NRF2 siRNA (Santa Cruz Biotechnology, Dallas, TX, USA) in Opti-MEM transfection medium (Thermo Fisher Scientific, USA) using Lipofectamine^TM LTX reagent with PLUS^TM reagent (Thermo Fisher Scientific, USA) following the manufacturer’s protocol and reported method. The cells (5 × 10^5 cells/well) were allowed to form a monolayer by incubating them for 24 h and then adding LPSEc (200 ng/mL) for 4 h. The STCs (1 µM) were then added and incubated for another 20 h. The nitric oxide (NO) level in cell supernatant was determined using the Griess reagent kit (Thermo Fisher Scientific, USA). The levels of proinflammatory cytokines (IL-1β, IL-6, IFN-γ, and TNF-α) in cell supernatant solutions were determined using commercially available ELISA kits (Abcam, Cambridge, UK). The cell pellets were lysed using Cell Lysis buffer (Thermo Fisher Scientific, Waltham, MA, USA) following the manufacturer’s instructions. The supernatant solution in the wells was replaced with PBS, and cells were detached by scraping, washed with PBS, and centrifuged to collect the cell pellet. The cell pellet was lysed on ice in a cell lysis buffer for half an hour, vortexing at regular intervals. The cell lysate was centrifuged at 15,000 rpm for 15 min at 4 °C. The clear lysate was stored at −80 °C until further use. The protein concentration was determined using Bradford’s assay kit (Thermo Fisher Scientific, USA) following the manufacturer’s instructions. The expression of COX-2, NF-κB p65, NRF2, and HO-1 in cell lysates was determined using commercially available ELISA kits (Abcam, St, Louis, Missouri, USA) following the manufacturer’s protocol. In addition, the thiol content was determined using a thiol quantification assay kit (Abcam, USA).

[1] = Liver microsomal stability, rat; type: in vitro ADME; conditions: rat liver microsomes, 1 μM (verapamil 0.5 μM)
Experimental: (§2) The liver microsomes of humans, rats, and mice were purchased from Merck (human, #M0567; rat, #M9066; mouse, #M9441). The metabolic stability of 6-shogaol and STCs (1 μM effective concentration; 5 μL) was mixed with liver microsomes (0.5 mg mL^−1; 445 μL) in a microcentrifuge tube. Verapamil (0.5 μM) was used as the positive control. The microsome and compound mixture were shaken on a plate shaker for 5 min to ensure homogeneity. NADPH (1 mM; 50 μL) was added to the mixture to start the metabolic reaction. The reaction mixture was incubated at 37 °C for 0, 3, 6, 15, 30, 45, and 60 min. The mixture (20 μL) was sampled and quenched with 180 μL of acetonitrile with internal standard (Donepezil 50 ng/mL) to terminate the metabolic reaction at each time point. Ultrapure water (80 μL) was added, and contents in the microcentrifuge tubes were centrifuged at 3800 rpm at 4 °C for 10 min. […] Each set of experiments was repeated three times in human, rat, and mouse liver microsomes. The concentration of the compounds versus time was plotted to determine the elimination rate constant (Kel). The intrinsic clearance (Clint) and half-life (t1/2) were calculated using the following equations.

NF-κB p65 = NF-κB p65 ELISA in LPSEc-stimulated BV-2 cell lysates; type: cell-based, mouse; conditions: LPSEc 200 ng/mL; for NF-κB p65 level: 1 μM; for inhibition at 1 µM: Mus musculus, BV-2, 1 μM, read-out: percent NF-κB inhibition
Experimental: as §1

COX-2 = COX-2 ELISA in LPSEc-stimulated BV-2 cell lysates; type: cell-based, mouse; conditions: LPSEc 200 ng/mL; for COX-2 level: 1 μM; for inhibition at 1 µM: Mus musculus, BV-2, 1 μM, read-out: percentage of COX-2 inhibition
Experimental: as §1

IL-6 = IL-6 ELISA in LPSEc-stimulated BV-2 cells; type: cell-based, mouse; conditions: LPSEc 200 ng/mL; for IL-6 level: 1 μM; for inhibition at 1 µM: Mus musculus, BV-2, 1 μM, read-out: percentage of IL-6 inhibition
Experimental: as §1

[2] = Liver microsomal stability, human; type: in vitro ADME; conditions: for Clint / half-life at 1 μM: human liver microsomes, 1 μM (verapamil 0.5 μM)
Experimental: as §2

nitric oxide (NO) = test: Nitric oxide (Griess) in LPSEc-stimulated BV-2 cells; type: cell-based, mouse; conditions: LPSEc 200 ng/mL; for NO production: 1 μM; for inhibition at 1 µM: Mus musculus, BV-2, 1 μM, read-out: percentage of NO inhibition
Experimental: as §1

[3] = test system: NAD(P)H quinone oxidoreductase 1 (NQO1); test: Prochaska microtiter plate bioassay, NQO1 induction in Hepa-1c1c7 cells; type: cell-based, mouse
Experimental: The effect of shogaol thiophene compounds (STCs) on NRF2 activation is determined by measuring the NAD(P)H quinone oxidoreductase 1 (NQO1) inducer activity, as reported in our previous studies. The mouse hepatoma cells (Hepa-1c1c7, 1 × 10^4 per well) were incubated with STCs (10, 1, 0.1, 0.01, and 0.001 µM) for 48 h. The cells were lysed using digitonin (0.8 mg/mL and 2 mM EDTA; Acros, UK), and the protein concentration was determined using Bradford’s assay kit (Thermo Fisher Scientific, USA). The cell lysate was incubated with a reaction mixture of 0.5 M Tris-Cl buffer (Calbiochem, USA), 7.5 mM FAD (Acros, UK), 150 mM glucose-6-phosphate (Calbiochem, San Diego, CA, USA), 2 U/mL glucose-6-phosphate dehydrogenase (Calbiochem, USA), 50 mM NADP+ (Sigma Aldrich, USA), 25 mM menadione (Sigma Aldrich, USA), and 0.7 mM MTT (Sigma Aldrich, USA) at 37 °C for 5 min. The absorbance was recorded at 610 nm using a microplate reader (Spectramax M3, Molecular Devices, San Jose, CA, USA), and the values were normalised to the total protein content.

IFN-γ = IFN-γ ELISA in LPSEc-stimulated BV-2 cells; type: cell-based, mouse; conditions: LPSEc 200 ng/mL; for IFN-γ level: 1 μM; for inhibition at 1 µM: Mus musculus, BV-2, 1 μM, read-out: percentage of IFN-γ inhibition
Experimental: as §1

T1 sequence (Q14145 2-624 limits assumed): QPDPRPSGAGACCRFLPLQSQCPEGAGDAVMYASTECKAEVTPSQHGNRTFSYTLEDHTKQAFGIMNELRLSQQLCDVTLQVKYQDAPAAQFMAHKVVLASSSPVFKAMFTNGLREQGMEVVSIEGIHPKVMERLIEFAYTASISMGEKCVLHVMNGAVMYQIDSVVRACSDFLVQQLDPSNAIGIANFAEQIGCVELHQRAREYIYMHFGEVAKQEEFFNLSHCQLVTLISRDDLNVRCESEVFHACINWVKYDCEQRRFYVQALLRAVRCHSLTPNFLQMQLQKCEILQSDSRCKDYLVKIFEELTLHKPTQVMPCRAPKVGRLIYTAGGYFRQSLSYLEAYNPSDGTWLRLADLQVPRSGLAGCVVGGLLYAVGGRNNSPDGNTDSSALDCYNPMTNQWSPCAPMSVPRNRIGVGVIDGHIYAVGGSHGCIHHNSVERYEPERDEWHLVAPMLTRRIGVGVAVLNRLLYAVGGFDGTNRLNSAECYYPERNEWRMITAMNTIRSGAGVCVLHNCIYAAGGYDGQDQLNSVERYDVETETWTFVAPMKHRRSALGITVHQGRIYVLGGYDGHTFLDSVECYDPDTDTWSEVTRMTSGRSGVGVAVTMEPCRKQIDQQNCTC

| Structure (SMILES) | IC50 (KEAP1-NRF2 interaction) [µM] | IL-1β level (IL-1β; NRF2-proficient BV-2 cells) [pg/mL] | IL-1β level (IL-1β; NRF2-silenced BV-2 cells) [pg/mL] | inhibition at 1 µM (IL-1β; NRF2-proficient BV-2 cells) [%] | inhibition at 1 µM (IL-1β; NRF2-silenced BV-2 cells) [%] | Clint [1] [mL/min/g liver] | half-life at 1 μM [1] [min] | NF-κB p65 level (NF-κB p65; NRF2-proficient BV-2 cells) [ng/mL] | NF-κB p65 level (NF-κB p65; NRF2-silenced BV-2 cells) [ng/mL] | inhibition at 1 µM (NF-κB p65; NRF2-proficient BV-2 cells) [%] | inhibition at 1 µM (NF-κB p65; NRF2-silenced BV-2 cells) [%] | COX-2 level (COX-2; NRF2-proficient BV-2 cells) [ng/mL] | COX-2 level (COX-2; NRF2-silenced BV-2 cells) [ng/mL] | IL-6 level (IL-6; NRF2-proficient BV-2 cells) [pg/mL] | IL-6 level (IL-6; NRF2-silenced BV-2 cells) [pg/mL] | Clint [2] [mL/min/g liver] | half-life at 1 μM [2] [min] | NO production (nitric oxide (NO); NRF2-proficient BV-2 cells) [µM] | IFN-γ level (IFN-γ; NRF2-proficient BV-2 cells) [pg/mL] | IFN-γ level (IFN-γ; NRF2-silenced BV-2 cells) [pg/mL] | also measured |
| --- | --- | --- | --- | --- | --- | --- | --- | --- | --- | --- | --- | --- | --- | --- | --- | --- | --- | --- | --- | --- | --- |
| CCCCC/C=C/C(=O)CCc1ccc(O)c(OC)c1 [6-shogaol, reference compound] | 0.83 ± 0.1 | 43.30 ± 0.62 | 88.57 ± 0.55 | 53.7 | 5 | 11.51 ± 1.37 | 6.32 | 70.54 ± 5.04 | 132.17 ± 4.52 | 44 | 4.61 | 4.30 ± 0.10 | 6.03 ± 0.21 | 435.67 ± 7.77 | 852.67 ± 5.69 | 7.56 ± 1.24 | 9.63 | 6.32 ± 0.03 | 25.75 ± 0.72 | 37.52 ± 1.01 | inhibition at 1 µM (COX-2; NRF2-proficient BV-2 cells): 35.5%; inhibition at 1 µM (COX-2; NRF2-silenced BV-2 cells): 11.7%; inhibition at 1 µM (IL-6; NRF2-proficient BV-2 cells): 53%; inhibition at 1 µM (IL-6; NRF2-silenced BV-2 cells): 6.27%; NO production (nitric oxide (NO); NRF2-silenced BV-2 cells): 8.56 ± 0.36 µM; inhibition at 1 µM (nitric oxide (NO); NRF2-proficient BV-2 cells): 40%; inhibition at 1 µM (nitric oxide (NO); NRF2-silenced BV-2 cells): 24.7%; concentration toxic to the cells in the NQO1 assay ([3]; Hepa-1c1c7 cells): 10 µM; EC (2-fold NQO1 induction) ([3]; Mus musculus, Hepa-1c1c7, 48 h, Hepa-1c1c7 cells, 48 h, read-out: CD (concentration required to double the NQO1 level)): 4.12 ± 0.52 µM; inhibition at 1 µM (IFN-γ; NRF2-proficient BV-2 cells): 36.3%; inhibition at 1 µM (IFN-γ; NRF2-silenced BV-2 cells): 10.5% |
| COc1cc(CCC(=O)/C=C/c2cc(-c3ccccc3)cs2)ccc1O [STC5, (E)-5-(4-Hydroxy-3-methoxyphenyl)-1-(4-phenylthiophen-2-yl)pent-1-en-3-one] | 0.04 ± 0.001 |  | 72.50 ± 1.32 | 71.4 | 22.3 | 7.22 ± 1.23 | 10.1 | 41.5 ± 0.79 | 86.3 ± 1.03 | 67.1 | 37.7 |  | 3.48 ± 0.09 | 212.33 ± 6.11 | 748.67 ± 8.33 | 5.09 ± 0.98 | 14.3 | 2.58 ± 0.04 | 14.34 ± 1.10 | 31.19 ± 0.85 | inhibition at 1 µM (COX-2; NRF2-proficient BV-2 cells): 76%; inhibition at 1 µM (COX-2; NRF2-silenced BV-2 cells): 49.1%; inhibition at 1 µM (IL-6; NRF2-proficient BV-2 cells): 77.1%; inhibition at 1 µM (IL-6; NRF2-silenced BV-2 cells): 17.7%; half-life in liver microsomes, times longer than that of 6-shogaol ([2]; liver microsomes, species not stated, versus 6-shogaol): about 1.5 times; inhibition at 1 µM (nitric oxide (NO); NRF2-proficient BV-2 cells): 75.5%; inhibition at 1 µM (nitric oxide (NO); NRF2-silenced BV-2 cells): 64.8%; times more potent than 6-shogaol (NRF2 activation) ([3]; versus 6-shogaol): 65 times; inhibition at 1 µM (IFN-γ; NRF2-proficient BV-2 cells): 42.7%; inhibition at 1 µM (IFN-γ; NRF2-silenced BV-2 cells): 25.6% |
| COc1cc(CCC(=O)/C=C/c2ccc([N+](=O)[O-])s2)ccc1O [STC8, (E)-5-(4-Hydroxy-3-methoxyphenyl)-1-(5-nitrothiophen-2-yl)pent-1-en-3-one] | 0.9 ± 0.05 | 39.93 ± 0.74 | 77.33 ± 0.93 |  |  | 10.57 ± 1.48 | 6.88 | 75.6 ± 5.04 | 131.57 ± 0.15 |  |  | 4.10 ± 0.10 | 4.47 ± 0.15 | 431.667 ± 3.06 | 846.67 ± 11.68 | 6.95 ± 1.52 | 10.5 | 6.38 ± 0.04 | 24.63 ± 0.64 | 37.86 ± 1.69 | NO production (nitric oxide (NO); NRF2-silenced BV-2 cells): 8.86 ± 0.38 µM; concentration toxic to the cells in the NQO1 assay ([3]; Hepa-1c1c7 cells): greater than 1 μM; CD (concentration required to double the NQO1 level) ([3]; Hepa-1c1c7 cells, 48 h): did not show the CD value |
